Measurements taken from PubChem BioAssay (NCI).
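Following 48 hours of exposure in 96-well plates, responses at five concentrations were used to interpolate endpoints linearly. The concentration for 50% growth inhibition is given as GI50. Definition used: TGI = concentration required for complete inhibition of growth.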

Key:
Assay in all cases: growth of human tumour cells (NCI), 48 h; in the data active means GI50 below about 0.43 µM; inactive means the rest
M14 melanoma = tested on: M14 melanoma
OVCAR-8 ovarian = tested on: OVCAR-8 ovarian
786-0 renal = tested on: 786-0 renal
MALME-3M melanoma = tested on: MALME-3M melanoma
EKVX NSCLC = tested on: EKVX NSCLC
IGROV1 ovarian = tested on: IGROV1 ovarian
LOX IMVI melanoma = tested on: LOX IMVI melanoma
NCI-H23 lung = tested on: NCI-H23 lung
HCC-2998 colon = tested on: HCC-2998 colon
A549 NSCLC = tested on: A549 NSCLC
SK-OV-3 ovarian = tested on: SK-OV-3 ovarian
CCRF-CEM leukemia = tested on: CCRF-CEM leukemia
SN12C renal = tested on: SN12C renal
UO-31 renal = tested on: UO-31 renal
OVCAR-5 ovarian = tested on: OVCAR-5 ovarian
SK-MEL-28 melanoma = tested on: SK-MEL-28 melanoma
SNB-75 CNS = tested on: SNB-75 CNS
UACC-257 melanoma = tested on: UACC-257 melanoma
COLO 205 colon = tested on: COLO 205 colon
KM20L2 colon = tested on: KM20L2 colon
U251 CNS = tested on: U251 CNS
SW-620 colon = tested on: SW-620 colon
LXFL 529 NSCLC = tested on: LXFL 529 NSCLC
DMS 273 small cell lung = tested on: DMS 273 small cell lung
NCI-H522 lung = tested on: NCI-H522 lung
ACHN renal = tested on: ACHN renal
SK-MEL-5 melanoma = tested on: SK-MEL-5 melanoma
SNB-19 CNS = tested on: SNB-19 CNS
HCT-116 colon = tested on: HCT-116 colon
HT29 colon = tested on: HT29 colon
MOLT-4 leukemia = tested on: MOLT-4 leukemia
SK-MEL-2 melanoma = tested on: SK-MEL-2 melanoma
KM12 colon = tested on: KM12 colon
SF-539 CNS = tested on: SF-539 CNS
A498 renal = tested on: A498 renal
K-562 leukemia = tested on: K-562 leukemia
SF-295 CNS = tested on: SF-295 CNS
SF-268 CNS = tested on: SF-268 CNS
HCT-15 colon = tested on: HCT-15 colon
OVCAR-4 ovarian = tested on: OVCAR-4 ovarian
RPMI-8226 leukemia = tested on: RPMI-8226 leukemia
OVCAR-3 ovarian = tested on: OVCAR-3 ovarian
HOP-62 NSCLC = tested on: HOP-62 NSCLC
NCI-H460 lung = tested on: NCI-H460 lung
DLD-1 colon = tested on: DLD-1 colon
HOP-92 NSCLC = tested on: HOP-92 NSCLC
UACC-62 melanoma = tested on: UACC-62 melanoma
TK-10 renal = tested on: TK-10 renal
SNB-78 CNS = tested on: SNB-78 CNS
CAKI-1 renal = tested on: CAKI-1 renal
M19-MEL melanoma = tested on: M19-MEL melanoma
SR leukemia = tested on: SR leukemia
HL-60(TB) leukemia = tested on: HL-60(TB) leukemia
NCI-H226 lung = tested on: NCI-H226 lung
DMS 114 small cell lung = tested on: DMS 114 small cell lung

CC(C)CC(=O)[O-].N.N.N.N.N.[Co+3].[O-][Cl+3]([O-])([O-])[O-]
inactive: GI50 (M14 melanoma) > 100 µM | GI50 (OVCAR-8 ovarian) > 100 µM | GI50 (786-0 renal) > 100 µM | GI50 (MALME-3M melanoma) > 100 µM | GI50 (EKVX NSCLC) > 100 µM | GI50 (IGROV1 ovarian) > 100 µM | GI50 (LOX IMVI melanoma) > 100 µM | GI50 (NCI-H23 lung) > 100 µM | GI50 (HCC-2998 colon) > 100 µM | GI50 (A549 NSCLC) > 100 µM | GI50 (SK-OV-3 ovarian) > 100 µM | GI50 (CCRF-CEM leukemia) > 100 µM | GI50 (SN12C renal) > 100 µM | GI50 (UO-31 renal) 85.7 µM | GI50 (OVCAR-5 ovarian) > 100 µM | GI50 (SK-MEL-28 melanoma) > 100 µM | GI50 (SNB-75 CNS) 22 µM | GI50 (UACC-257 melanoma) > 100 µM | GI50 (COLO 205 colon) > 100 µM | GI50 (KM20L2 colon) > 100 µM | GI50 (U251 CNS) > 100 µM | GI50 (SW-620 colon) > 100 µM | GI50 (LXFL 529 NSCLC) > 100 µM | GI50 (DMS 273 small cell lung) > 100 µM | GI50 (NCI-H522 lung) > 100 µM | GI50 (ACHN renal) > 100 µM | GI50 (SK-MEL-5 melanoma) > 100 µM | GI50 (SNB-19 CNS) > 100 µM | GI50 (HCT-116 colon) > 100 µM | GI50 (HT29 colon) > 100 µM | GI50 (MOLT-4 leukemia) 70.8 µM | GI50 (SK-MEL-2 melanoma) > 100 µM | GI50 (KM12 colon) > 100 µM | GI50 (SF-539 CNS) > 100 µM | GI50 (A498 renal) > 100 µM | GI50 (K-562 leukemia) > 100 µM | GI50 (SF-295 CNS) > 100 µM | GI50 (SF-268 CNS) > 100 µM | GI50 (HCT-15 colon) > 100 µM | GI50 (OVCAR-4 ovarian) > 100 µM | GI50 (RPMI-8226 leukemia) > 100 µM | GI50 (OVCAR-3 ovarian) > 100 µM | GI50 (HOP-62 NSCLC) > 100 µM | GI50 (NCI-H460 lung) > 100 µM | GI50 (DLD-1 colon) > 100 µM | GI50 (HOP-92 NSCLC) > 100 µM | GI50 (UACC-62 melanoma) > 100 µM | GI50 (TK-10 renal) > 100 µM | GI50 (SNB-78 CNS) > 100 µM
> 100 µM: TGI (M14 melanoma) | TGI (OVCAR-8 ovarian) | TGI (786-0 renal) | TGI (MALME-3M melanoma) | TGI (EKVX NSCLC) | TGI (IGROV1 ovarian) | TGI (LOX IMVI melanoma) | TGI (NCI-H23 lung) | TGI (HCC-2998 colon) | TGI (A549 NSCLC) | TGI (SK-OV-3 ovarian) | TGI (CCRF-CEM leukemia) | TGI (SN12C renal) | TGI (UO-31 renal) | TGI (OVCAR-5 ovarian) | TGI (SK-MEL-28 melanoma) | TGI (SNB-75 CNS) | TGI (UACC-257 melanoma) | TGI (COLO 205 colon) | TGI (KM20L2 colon) | TGI (U251 CNS) | TGI (SW-620 colon) | TGI (LXFL 529 NSCLC) | TGI (DMS 273 small cell lung) | TGI (NCI-H522 lung) | TGI (ACHN renal) | TGI (SK-MEL-5 melanoma) | TGI (SNB-19 CNS) | TGI (HCT-116 colon) | TGI (HT29 colon) | TGI (MOLT-4 leukemia) | TGI (SK-MEL-2 melanoma) | TGI (KM12 colon) | TGI (SF-539 CNS) | TGI (A498 renal) | TGI (K-562 leukemia) | TGI (SF-295 CNS) | TGI (SF-268 CNS) | TGI (HCT-15 colon) | TGI (OVCAR-4 ovarian) | TGI (RPMI-8226 leukemia) | TGI (OVCAR-3 ovarian) | TGI (HOP-62 NSCLC) | TGI (NCI-H460 lung) | TGI (DLD-1 colon) | TGI (HOP-92 NSCLC) | TGI (UACC-62 melanoma) | TGI (TK-10 renal) | TGI (SNB-78 CNS)

Cc1ccc(-c2cc(=S)n(-c3ccccc3)c3nc(=S)n(-c4ccccc4)c(N)c23)cc1
> 100 µM: TGI (M14 melanoma) | TGI (OVCAR-8 ovarian) | TGI (CAKI-1 renal) | TGI (786-0 renal) | TGI (MALME-3M melanoma) | TGI (IGROV1 ovarian) | TGI (M19-MEL melanoma) | TGI (NCI-H23 lung) | TGI (HCC-2998 colon) | TGI (A549 NSCLC) | TGI (CCRF-CEM leukemia) | TGI (UO-31 renal) | TGI (OVCAR-5 ovarian) | TGI (SK-MEL-28 melanoma) | TGI (SNB-75 CNS) | TGI (UACC-257 melanoma) | TGI (COLO 205 colon) | TGI (KM20L2 colon) | TGI (U251 CNS) | TGI (SW-620 colon) | TGI (LXFL 529 NSCLC) | TGI (DMS 273 small cell lung) | TGI (NCI-H522 lung) | TGI (ACHN renal) | TGI (SK-MEL-5 melanoma) | TGI (SNB-19 CNS) | TGI (HCT-116 colon) | TGI (HT29 colon) | TGI (MOLT-4 leukemia) | TGI (SK-MEL-2 melanoma) | TGI (KM12 colon) | TGI (SR leukemia) | TGI (SF-539 CNS) | TGI (HL-60(TB) leukemia) | TGI (K-562 leukemia) | TGI (SF-295 CNS) | TGI (SF-268 CNS) | TGI (NCI-H226 lung) | TGI (HCT-15 colon) | TGI (OVCAR-4 ovarian) | TGI (RPMI-8226 leukemia) | TGI (OVCAR-3 ovarian) | TGI (HOP-62 NSCLC) | TGI (NCI-H460 lung) | TGI (DLD-1 colon) | TGI (HOP-92 NSCLC) | TGI (UACC-62 melanoma) | TGI (TK-10 renal) | TGI (DMS 114 small cell lung)
